Measured values taken from US12577522B2, “System and method for screening therapeutic agents” (Carnegie Mellon University, priority 2020, dated 2026).

Experiments:
[1] = tested on: MDA-MB-231 human breast cancer cell line mouse xenografts (tumor fragments); test: 3D ECM microsystem (collagen tumor-on-a-chip): tumor fragment drug screening, live/dead viability and COMPUSYN combination index; format: cell-based; conditions: three days
[2] = tested on: MDA-MB-231 human breast cancer cell line mouse xenografts (tumor fragments); test: 2D 96-well plate control: tumor fragment drug screening, live/dead viability and COMPUSYN combination index; format: cell-based; conditions: 2D 96-well control, three days, drug refreshed every 12 h
[3] = Drug gradient characterization in 3D collagen scaffold by confocal microscopy; format: physicochemical; conditions: confocal fluorescence; doxorubicin after 24 h, left to right channel
[4] = tested on: MDA-MB-231 cell; conditions: previously reported; cited from earlier work

COc1cccc2c1C(=O)c1c(O)c3c(c(O)c1C2=O)C[C@@](O)(C(=O)CO)C[C@@H]3O[C@H]1C[C@H](N)[C@H](O)[C@H](C)O1 [doxorubicin]
tumor viability (live/dead staining) ([1]; 3D ECM microsystem, drug replenished every 12 h): dose-dependent decrease in viability | viability in 3D ECM microsystem relative to 2D controls ([1]; doses in 2D matched to 48 h simulated concentration): lower viability compared to 2D controls | tumor viability (live/dead staining) [2]: dose-dependent decrease in viability | diffusion profile in 3D collagen scaffold [3]: approximately linear concentration profile | median effect dose (Dm) [4]: much lower than 4-hydroxycyclophosphamide
